In patent US7879792B2, “Synthetic peptide inhibitors of thrombin and thrombin activation of protease activated receptors 1 and 4” (The Regents of the University of Michigan, priority 2005, dated 2011):
Where a SMILES comes first, the peptide text is derived from it.

Assay: stability testing in MES buffer (pH 6.5)
Type: physicochemical
Conditions: 37° C., read-out: t1/2 (min) MES Buffer (pH 6.5)
Experimental: Stability testing of the various compounds was performed in buffer, intestinal perfusate, and an intestinal homogenate preparation to assess the potential oral availability of these compounds. Initial studies prepared the tissue for stability studies. The buffer used in stability testing is 10 mM MES (pH 6.5) containing 135 mM NaCl, and 5 mM KCl. To collect intestinal perfusate from rats, male Sprague Dawley rats, 8 to 10 weeks old, weighing 250 to 350 g were fasted 15 to 18 hours with water given ad libitum. Anesthesia was administered by intramuscular injection of pentobarbital/ketamine (40 mg/kg and 80 mg/kg, respectively). The rats were placed on a warming pad under a surgical lamp to maintain body temperature and jejunal intestinal segments were exposed through a midline, abdominal incision. Approximately 20 cm segment of the jejunum (2 to 4 cm distal to the ligament of Treitz) was cannulated and the intestinal segments were perfused with 10 mM MES (pH 6.5) containing 135 mM NaCl, and 5 mM KCl at a flow-rate of 0.5 ml/min at 37° C. using a constant infusion pump (Harvard Apparatus, South Natick, Mass.). The collected perfusate was stored at −80° C. until use for ex vivo stability studies. After collection, the perfused intestinal segments were flushed with ice-cold 0.15 M KCl solution and the animal was euthanized and the jejunal intestinal segment detached. The inner intestinal tissue layers are scraped out and homogenized in MES buffer (pH 6.5) in a ratio of 1 part of intestinal tissue to 5 parts buffer. Total protein content of the perfusate and the homogenate were determined using a Biorad protein assay kit. The intestinal homogenate samples were used immediately or rapidly frozen at −80° C. until stability analysis.
The actual stability testing protocol is as follows: A 0.1 ml aliquot of the synthetic peptide solution (1 mg/ml) was added to 0.9 ml of MES buffer, pH 6.5, intestinal perfusate, or intestinal homogenate at 37° C. Samples were mixed by vortexing and 100 microliter aliquots were removed over a 60 to 90 minute period for analysis of breakdown products. […]

Work on `N=C(N)NCCC[C@@H](N)C(=O)N1[C@H](C(=O)N2CCC[C@H]2C(=O)NCC(=O)N[C@@H](Cc2ccccc2)C(N)=O)C[C@@H]2CCCC[C@@H]21` [rOicPGF, D-Arg-Oic-Pro-Gly-Phe, reference compound] (HELM PEPTIDE1{[dR].[O=C([C@@H]1C[C@@H]2CCCC[C@@H]2N1[*:1])[*:2]].P.G.F.[am]}$$$$V2.0) yielded a half-life at 0.1 mg/ml of 179 min.
